According to patent US7829589B2, “Sulfonamide compounds and uses thereof” (Elixir Pharmaceuticals, Inc., priority 2005, dated 2010):

Target: GHS-R (Homo sapiens, UniProt Q92847)
Experiment: GHS-R antagonist activity (Ki) in a cell based assay
Procedure: Cell-Based Activity Assays. For example, the ability of the compound to modulate accumulation of a second messenger signaling component downstream of GHS-R can be evaluated. For example, inositol phosphates (IP), as a result of Gq signaling in a mammalian cell, e.g., a Cos-7 cells. Other tissue culture cells, Xenopus oocytes, and primary cells can also be used.
Phosphatidylinositol turnover assay. One day after transfection COS-7 cells are incubated for 24 hours with 5 μCi of [^3H]-myo-inositol in 1 ml medium supplemented with 10% fetal calf serum, 2 mM glutamine and 0.01 mg/ml gentamicin per well. Cells are then washed twice in buffer, 20 mM HEPES, pH 7.4, supplemented with 140 mM NaCl, 5 mM KCl, 1 mM MgSO4, 1 mM CaCl2, 10 mM glucose, 0.05% (w/v) bovine serum; and incubated in 0.5 ml buffer supplemented with 10 mM LiCl at 37° C. for 30 min. For some assays, it is also useful to incubate the cells with adenosine deaminase ADA (200 U/mg, Boehringer Mannheim, Germany) for 30 min in a concentration of 1 U/ml.
After incubation with the compound of interest for 45 min at 37° C., cells are extracted with 10% ice-cold perchloric acid and placed on ice for 30 min. The resulting supernatants are neutralized with KOH in HEPES buffer, and [^3H]-inositol phosphate is purified on Bio-Rad AG 1-X8 anion exchange resin as described. Assays can be run in duplicate, triplicate, etc. […]

Sequence of GHS-R (Q92847 whole entry, species assumed): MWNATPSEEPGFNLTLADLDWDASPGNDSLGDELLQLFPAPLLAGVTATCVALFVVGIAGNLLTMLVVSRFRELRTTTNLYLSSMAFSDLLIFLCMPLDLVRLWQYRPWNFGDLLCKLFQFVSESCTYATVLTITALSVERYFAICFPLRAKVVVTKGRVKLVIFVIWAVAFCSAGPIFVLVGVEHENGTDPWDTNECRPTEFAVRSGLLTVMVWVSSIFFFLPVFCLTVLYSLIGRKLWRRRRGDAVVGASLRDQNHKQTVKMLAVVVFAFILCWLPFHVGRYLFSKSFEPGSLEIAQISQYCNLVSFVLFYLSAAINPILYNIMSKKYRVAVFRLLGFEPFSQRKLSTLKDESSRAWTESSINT

Structure (SMILES) | Ki [nM]
CCN(CC)CCCS(=O)(=O)N[C@H](CCc1ccccc1)c1nc(-c2ccc(OC)cc2F)n[nH]1 [Compound 115, 3-Diethylamino-propane-1-sulfonic acid {(R)-1-[5-(2-fluoro-4-methoxy-phenyl)-2H-[1,2,4]triazol-3-yl]-3-phenyl-propyl}-amide] | < 100
CCN(CC)CCS(=O)(=O)N[C@H](CCc1ccccc1)c1nc(-c2ccccc2)no1 [Compound 17, 2-Diethylamino-ethanesulfonic acid [(R)-3-phenyl-1-(3-phenyl-[1,2,4]oxadiazol-5-yl)-propyl]-amide] | 100 to 500
CCN(CC)CCCS(=O)(=O)N[C@H](CCc1ccccc1)c1nc(-c2ccc3c(c2)OCCO3)n[nH]1 [Compound 47, 3-Diethylamino-propane-1-sulfonic acid {(R)-1-[5-(2,3-dihydro-benzo[1,4]dioxin-6-yl)-2H-[1,2,4]triazol-3-yl]-3-phenyl-propyl}-amide] | < 100
CCN(CC)CCCS(=O)(=O)N[C@H](CCc1ccccc1)c1nc(-c2ccc(N(C)C)cc2)n[nH]1 [Compound 110, 3-Diethylamino-propane-1-sulfonic acid {(R)-1-[5-(4-dimethylamino-phenyl)-2H-[1,2,4]triazol-3-yl]-3-phenyl-propyl}-amide] | ≥ 1000
CCN(CC)CCCS(=O)(=O)N[C@H](CCc1ccccc1)c1nc(CCOC)no1 [Compound 60, 3-Diethylamino-propane-1-sulfonic acid {(R)-1-[3-(2-methoxy-ethyl)-[1,2,4]oxadiazol-5-yl]-3-phenyl-propyl}-amide] | 500 to 1000
CCN(CC)CCCS(=O)(=O)N[C@H](CCc1ccccc1)c1nc(-c2ccc(OC)c(OC)c2)n[nH]1 [Compound 80, 3-Diethylamino-propane-1-sulfonic acid {(R)-1-[5-(3,4-dimethoxy-phenyl)-2H-[1,2,4]triazol-3-yl]-3-phenyl-propyl}-amide] | 100 to 500
CCN(CC)CCCS(=O)(=O)N[C@@H](CC(C)C)c1nc(-c2ccc(OC)cc2)n[nH]1 [Compound 159, (S)-3-Diethylamino-propane-1-sulfonic acid {1-[5-(4-methoxy-phenyl)-2H-[1,2,4]triazol-3-yl]-3-methyl-butyl}-amide] | 100 to 500
CCN(CC)CCCS(=O)(=O)N[C@H](CCc1ccccc1)c1nc(Cc2cc(F)cc(F)c2)n[nH]1 [Compound 132, 3-Diethylamino-propane-1-sulfonic acid {(R)-1-[5-(3,5-difluoro-benzyl)-2H-[1,2,4]triazol-3-yl]-3-phenyl-propyl}-amide] | < 100
CCN(CC)CCCS(=O)(=O)N1CC[C@H]1c1nc(-c2ccc(OC)cc2)no1 [Compound 153, (S)-Diethyl-(3-{2-[3-(4-methoxy-phenyl)-[1,2,4]oxadiazol-5-yl]-azetidine-1-sulfonyl}-propyl)-amine] | < 100
CCN(CC)CCCS(=O)(=O)N[C@H](CCc1ccccc1)c1nc(-c2ccc(C)cc2)n[nH]1 [Compound 108, 3-Diethylamino-propane-1-sulfonic acid [(R)-3-phenyl-1-(5-p-tolyl-2H-[1,2,4]triazol-3-yl)-propyl]-amide] | 100 to 500
CCN(CC)CCCS(=O)(=O)N[C@H](CCc1ccccc1)c1nc(COc2ccccc2)no1 [Compound 99, 3-Diethylamino-propane-1-sulfonic acid [(R)-1-(3-phenoxymethyl-[1,2,4]oxadiazol-5-yl)-3-phenyl-propyl]-amide] | < 100
CCN(CC)CCCS(=O)(=O)N[C@@H](C)c1nc(-c2ccc(OC)cc2)no1 [Compound 150, (S)-3-Diethylamino-propane-1-sulfonic acid {1-[3-(4-methoxy-phenyl)-[1,2,4]oxadiazol-5-yl]-ethyl}-amide] | 100 to 500
CCN(CC)CCCS(=O)(=O)N[C@H](CC(C)C)c1nc(-c2ccc(OC)cc2)n[nH]1 [Compound 160, (R)-3-Diethylamino-propane-1-sulfonic acid {1-[5-(4-methoxy-phenyl)-2H-[1,2,4]triazol-3-yl]-3-methyl-butyl}-amide] | 100 to 500
CCN(CC)CCCS(=O)(=O)N[C@H](CCc1ccccc1)c1nc(-c2ccccc2C)no1 [Compound 4, 3-Diethylamino-propane-1-sulfonic acid [(R)-3-phenyl-1-(3-o-tolyl-[1,2,4]oxadiazol-5-yl)-propyl]-amide] | < 100
CCN(CC)CCCS(=O)(=O)N[C@H](COCc1ccccc1)c1nc(-c2cccnc2)no1 [Compound 45, 3-Diethylamino-propane-1-sulfonic acid [(R)-2-benzyloxy-1-(3-pyridin-3-yl-[1,2,4]oxadiazol-5-yl)-ethyl]-amide] | ≥ 1000
CCN(CC)CCCS(=O)(=O)N[C@H](CCc1ccccc1)c1nc(-c2ccc(Br)cc2)no1 [Compound 59, 3-Diethylamino-propane-1-sulfonic acid {(R)-1-[3-(4-bromo-phenyl)-[1,2,4]oxadiazol-5-yl]-3-phenyl-propyl}-amide] | < 100
CCN(CC)CCCS(=O)(=O)N[C@H](CCc1ccccc1)c1nc(-c2c(Cl)cccc2Cl)no1 [Compound 12, 3-Diethylamino-propane-1-sulfonic acid {(R)-1-[3-(2,6-dichloro-phenyl)-[1,2,4]oxadiazol-5-yl]-3-phenyl-propyl}-amide] | < 100
CCN(CC)CCS(=O)(=O)N[C@H](CCc1ccccc1)c1nc(Cc2ccc(Br)cc2)no1 [Compound 84, 2-Diethylamino-ethanesulfonic acid {(R)-1-[3-(4-bromo-benzyl)-[1,2,4]oxadiazol-5-yl]-3-phenyl-propyl}-amide] | 100 to 500
CCN(CC)CCCS(=O)(=O)N[C@H](CCc1ccccc1)c1nc(-c2ccccc2F)n[nH]1 [Compound 29, 3-Diethylamino-propane-1-sulfonic acid {(R)-1-[5-(2-fluoro-phenyl)-2H-[1,2,4]triazol-3-yl]-3-phenyl-propyl}-amide] | < 100
CCN(CC)CCS(=O)(=O)N[C@H](CCc1ccccc1)c1nc(-c2ccc(OC)cc2)no1 [Compound 88, 2-Diethylamino-ethanesulfonic acid {(R)-1-[3-(4-methoxy-phenyl)-[1,2,4]oxadiazol-5-yl]-3-phenyl-propyl}-amide] | ≥ 1000
CCN(CC)CCCS(=O)(=O)N[C@H](CCc1ccccc1)c1nc(-c2ccc(C(C)(C)C)cc2)n[nH]1 [Compound 42, 3-Diethylamino-propane-1-sulfonic acid {(R)-1-[5-(4-tert-butyl-phenyl)-2H-[1,2,4]triazol-3-yl]-3-phenyl-propyl}-amide] | ≥ 1000

The next lines start with the values.

Ki [nM] | Structure (SMILES)
500 to 1000 | CCN(CC)CCCS(=O)(=O)N[C@H](CCc1ccccc1)c1nc(-c2ccccn2)no1 [Compound 39, 3-Diethylamino-propane-1-sulfonic acid [(R)-3-phenyl-1-(3-pyridin-2-yl-[1,2,4]oxadiazol-5-yl)-propyl]-amide]
100 to 500 | CCN(CC)CCS(=O)(=O)N[C@H](CCc1ccccc1)c1nc(-c2cccnc2)no1 [Compound 43, 2-Diethylamino-ethanesulfonic acid [(R)-3-phenyl-1-(3-pyridin-3-yl-[1,2,4]oxadiazol-5-yl)-propyl]-amide]
100 to 500 | CCN(CC)CCCS(=O)(=O)N1CCC[C@H]1c1nc(-c2ccc(OC)cc2)no1 [Compound 143, (S)-Diethyl-(3-{2-[3-(4-methoxy-phenyl)-[1,2,4]oxadiazol-5-yl]-pyrrolidine-1-sulfonyl}-propyl)-amine]
< 100 | CCN(CC)CCCS(=O)(=O)N[C@H](CCc1ccccc1)c1nc(Cc2cccc(Br)c2)no1 [Compound 74, 3-Diethylamino-propane-1-sulfonic acid {(R)-1-[3-(3-bromo-benzyl)-[1,2,4]oxadiazol-5-yl]-3-phenyl-propyl}-amide]
< 100 | CCN(CC)CCCS(=O)(=O)N[C@H](CCc1ccccc1)c1nc(-c2cccc(Br)c2)no1 [Compound 64, 3-Diethylamino-propane-1-sulfonic acid {(R)-1-[3-(3-bromo-phenyl)-[1,2,4]oxadiazol-5-yl]-3-phenyl-propyl}-amide]
< 100 | CCN(CC)CCCS(=O)(=O)N[C@H](CCc1ccccc1)c1nc(-c2ccc(C#N)c(Cl)c2)n[nH]1 [Compound 126, 3-Diethylamino-propane-1-sulfonic acid {(R)-1-[5-(3-chloro-4-cyano-phenyl)-2H-[1,2,4]triazol-3-yl]-3-phenyl-propyl}-amide]
100 to 500 | CCN(CC)CCCS(=O)(=O)N[C@H](CCc1ccccc1)c1nc(-c2ccc(Br)cc2C)no1 [Compound 67, 3-Diethylamino-propane-1-sulfonic acid {(R)-1-[3-(4-bromo-2-methyl-phenyl)-[1,2,4]oxadiazol-5-yl]-3-phenyl-propyl}-amide]
< 100 | CCN(CC)CCCS(=O)(=O)N[C@H](CCc1ccccc1)c1nc(-c2cccc(F)c2)n[nH]1 [Compound 15, 3-Diethylamino-propane-1-sulfonic acid {(R)-1-[5-(3-fluoro-phenyl)-2H-[1,2,4]triazol-3-yl]-3-phenyl-propyl}-amide]
100 to 500 | CCN(CC)CCCS(=O)(=O)N[C@H](COCc1ccccc1)c1nc(-c2ccccc2)n[nH]1 [Compound 25, 3-Diethylamino-propane-1-sulfonic acid [(S)-2-benzyloxy-1-(5-phenyl-2H-[1,2,4]triazol-3-yl)-ethyl]-amide]
